Reference: PubChem BioAssay (NCI)
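Results reflect a 48-hour exposure of cells in 96-well plates to compound at five concentrations. TGI marks complete inhibition of growth.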

system: HOP-92 NSCLC; assay: DTP human tumour cell line panel, 48 h

Row | Structure (SMILES) | TGI [µM]
1 | CC(CCc1ccccc1)NCC(O)n1c(/N=N/N(C)C)nc2c1c(=O)n(C)c(=O)n2C (stereo not drawn) | > 100
2 | O=C1CC(Cl)c2c1csc2Br (stereo not drawn) | 41.8

system: CAKI-1 renal; assay: DTP human tumour cell line panel, 48 h

Row | Structure (SMILES) | TGI [µM]
3 | Cc1ccc(N=Nc2c(O)c(C(=O)O)cc3ccccc23)c(S(=O)(=O)O)c1 | > 100
4 | COc1cc(S(=O)(=O)Nc2ccc(-c3csc(N4C(=O)C(C)SC4c4cccc(Oc5ccccc5)c4)n3)cc2)ccc1Cl (stereo not drawn) | > 100
5 | CC(CCc1ccccc1)NCC(O)n1c(/N=N/N(C)C)nc2c1c(=O)n(C)c(=O)n2C (stereo not drawn) | > 100
6 | O=C1CC(Cl)c2c1csc2Br (stereo not drawn) | 17.7

system: OVCAR-5 ovarian; assay: DTP human tumour cell line panel, 48 h

Row | Structure (SMILES) | TGI [µM]
7 | Cc1ccc(N=Nc2c(O)c(C(=O)O)cc3ccccc23)c(S(=O)(=O)O)c1 | > 100
8 | COc1cc(S(=O)(=O)Nc2ccc(-c3csc(N4C(=O)C(C)SC4c4cccc(Oc5ccccc5)c4)n3)cc2)ccc1Cl (stereo not drawn) | > 100
9 | O=c1cc(NNc2ccc(F)cc2)[nH]c(=O)[nH]1 | 33.3
10 | CC(CCc1ccccc1)NCC(O)n1c(/N=N/N(C)C)nc2c1c(=O)n(C)c(=O)n2C (stereo not drawn) | > 100
11 | O=C1CC(Cl)c2c1csc2Br (stereo not drawn) | 33.5

system: K-562 leukemia; assay: DTP human tumour cell line panel, 48 h

Row | Structure (SMILES) | TGI [µM]
12 | Cc1ccc(N=Nc2c(O)c(C(=O)O)cc3ccccc23)c(S(=O)(=O)O)c1 | > 100
13 | COc1cc(S(=O)(=O)Nc2ccc(-c3csc(N4C(=O)C(C)SC4c4cccc(Oc5ccccc5)c4)n3)cc2)ccc1Cl (stereo not drawn) | > 100
14 | O=c1cc(NNc2ccc(F)cc2)[nH]c(=O)[nH]1 | 81.2
15 | CC(CCc1ccccc1)NCC(O)n1c(/N=N/N(C)C)nc2c1c(=O)n(C)c(=O)n2C (stereo not drawn) | > 100
16 | O=C1CC(Cl)c2c1csc2Br (stereo not drawn) | 47

system: LOX IMVI melanoma; assay: DTP human tumour cell line panel, 48 h

Row | Structure (SMILES) | TGI [µM]
17 | Cc1ccc(N=Nc2c(O)c(C(=O)O)cc3ccccc23)c(S(=O)(=O)O)c1 | > 100
18 | COc1cc(S(=O)(=O)Nc2ccc(-c3csc(N4C(=O)C(C)SC4c4cccc(Oc5ccccc5)c4)n3)cc2)ccc1Cl (stereo not drawn) | > 100
19 | O=c1cc(NNc2ccc(F)cc2)[nH]c(=O)[nH]1 | > 100
20 | CC(CCc1ccccc1)NCC(O)n1c(/N=N/N(C)C)nc2c1c(=O)n(C)c(=O)n2C (stereo not drawn) | > 100
21 | O=C1CC(Cl)c2c1csc2Br (stereo not drawn) | 30.5

system: SK-OV-3 ovarian; assay: DTP human tumour cell line panel, 48 h

Row | Structure (SMILES) | TGI [µM]
22 | Cc1ccc(N=Nc2c(O)c(C(=O)O)cc3ccccc23)c(S(=O)(=O)O)c1 | > 100
23 | COc1cc(S(=O)(=O)Nc2ccc(-c3csc(N4C(=O)C(C)SC4c4cccc(Oc5ccccc5)c4)n3)cc2)ccc1Cl (stereo not drawn) | > 100
24 | O=c1cc(NNc2ccc(F)cc2)[nH]c(=O)[nH]1 | > 100
25 | CC(CCc1ccccc1)NCC(O)n1c(/N=N/N(C)C)nc2c1c(=O)n(C)c(=O)n2C (stereo not drawn) | > 100
26 | O=C1CC(Cl)c2c1csc2Br (stereo not drawn) | 32.6

system: HOP-62 NSCLC; assay: DTP human tumour cell line panel, 48 h

Row | Structure (SMILES) | TGI [µM]
27 | Cc1ccc(N=Nc2c(O)c(C(=O)O)cc3ccccc23)c(S(=O)(=O)O)c1 | > 100
28 | COc1cc(S(=O)(=O)Nc2ccc(-c3csc(N4C(=O)C(C)SC4c4cccc(Oc5ccccc5)c4)n3)cc2)ccc1Cl (stereo not drawn) | > 100
29 | O=c1cc(NNc2ccc(F)cc2)[nH]c(=O)[nH]1 | 32.7
30 | CC(CCc1ccccc1)NCC(O)n1c(/N=N/N(C)C)nc2c1c(=O)n(C)c(=O)n2C (stereo not drawn) | > 100
31 | O=C1CC(Cl)c2c1csc2Br (stereo not drawn) | 28.7

system: HCT-15 colon; assay: DTP human tumour cell line panel, 48 h

Row | Structure (SMILES) | TGI [µM]
32 | Cc1ccc(N=Nc2c(O)c(C(=O)O)cc3ccccc23)c(S(=O)(=O)O)c1 | > 100
33 | COc1cc(S(=O)(=O)Nc2ccc(-c3csc(N4C(=O)C(C)SC4c4cccc(Oc5ccccc5)c4)n3)cc2)ccc1Cl (stereo not drawn) | > 100
34 | O=c1cc(NNc2ccc(F)cc2)[nH]c(=O)[nH]1 | 31.7
35 | CC(CCc1ccccc1)NCC(O)n1c(/N=N/N(C)C)nc2c1c(=O)n(C)c(=O)n2C (stereo not drawn) | > 100
36 | O=C1CC(Cl)c2c1csc2Br (stereo not drawn) | 25.8

system: HL-60(TB) leukemia; assay: DTP human tumour cell line panel, 48 h

Row | Structure (SMILES) | TGI [µM]
37 | COc1cc(S(=O)(=O)Nc2ccc(-c3csc(N4C(=O)C(C)SC4c4cccc(Oc5ccccc5)c4)n3)cc2)ccc1Cl (stereo not drawn) | 67.2
38 | O=c1cc(NNc2ccc(F)cc2)[nH]c(=O)[nH]1 | > 100
39 | CC(CCc1ccccc1)NCC(O)n1c(/N=N/N(C)C)nc2c1c(=O)n(C)c(=O)n2C (stereo not drawn) | > 100
40 | O=C1CC(Cl)c2c1csc2Br (stereo not drawn) | 52.4

system: MALME-3M melanoma; assay: DTP human tumour cell line panel, 48 h

Row | Structure (SMILES) | TGI [µM]
41 | Cc1ccc(N=Nc2c(O)c(C(=O)O)cc3ccccc23)c(S(=O)(=O)O)c1 | > 100
42 | COc1cc(S(=O)(=O)Nc2ccc(-c3csc(N4C(=O)C(C)SC4c4cccc(Oc5ccccc5)c4)n3)cc2)ccc1Cl (stereo not drawn) | > 100
43 | O=c1cc(NNc2ccc(F)cc2)[nH]c(=O)[nH]1 | 43.8
44 | CC(CCc1ccccc1)NCC(O)n1c(/N=N/N(C)C)nc2c1c(=O)n(C)c(=O)n2C (stereo not drawn) | > 100
45 | O=C1CC(Cl)c2c1csc2Br (stereo not drawn) | 30.1

system: COLO 205 colon; assay: DTP human tumour cell line panel, 48 h

Row | Structure (SMILES) | TGI [µM]
46 | Cc1ccc(N=Nc2c(O)c(C(=O)O)cc3ccccc23)c(S(=O)(=O)O)c1 | > 100
47 | COc1cc(S(=O)(=O)Nc2ccc(-c3csc(N4C(=O)C(C)SC4c4cccc(Oc5ccccc5)c4)n3)cc2)ccc1Cl (stereo not drawn) | > 100
48 | O=c1cc(NNc2ccc(F)cc2)[nH]c(=O)[nH]1 | 30.9
49 | CC(CCc1ccccc1)NCC(O)n1c(/N=N/N(C)C)nc2c1c(=O)n(C)c(=O)n2C (stereo not drawn) | > 100
50 | O=C1CC(Cl)c2c1csc2Br (stereo not drawn) | 28.5

system: UACC-62 melanoma; assay: DTP human tumour cell line panel, 48 h

Row | Structure (SMILES) | TGI [µM]
51 | Cc1ccc(N=Nc2c(O)c(C(=O)O)cc3ccccc23)c(S(=O)(=O)O)c1 | > 100
52 | COc1cc(S(=O)(=O)Nc2ccc(-c3csc(N4C(=O)C(C)SC4c4cccc(Oc5ccccc5)c4)n3)cc2)ccc1Cl (stereo not drawn) | > 100
53 | O=c1cc(NNc2ccc(F)cc2)[nH]c(=O)[nH]1 | 33.5
54 | CC(CCc1ccccc1)NCC(O)n1c(/N=N/N(C)C)nc2c1c(=O)n(C)c(=O)n2C (stereo not drawn) | > 100
55 | O=C1CC(Cl)c2c1csc2Br (stereo not drawn) | 29.5

system: OVCAR-3 ovarian; assay: DTP human tumour cell line panel, 48 h

Row | Structure (SMILES) | TGI [µM]
56 | Cc1ccc(N=Nc2c(O)c(C(=O)O)cc3ccccc23)c(S(=O)(=O)O)c1 | > 100
57 | COc1cc(S(=O)(=O)Nc2ccc(-c3csc(N4C(=O)C(C)SC4c4cccc(Oc5ccccc5)c4)n3)cc2)ccc1Cl (stereo not drawn) | > 100
58 | O=c1cc(NNc2ccc(F)cc2)[nH]c(=O)[nH]1 | 32.7
59 | CC(CCc1ccccc1)NCC(O)n1c(/N=N/N(C)C)nc2c1c(=O)n(C)c(=O)n2C (stereo not drawn) | > 100
60 | O=C1CC(Cl)c2c1csc2Br (stereo not drawn) | 39.5

system: TK-10 renal; assay: DTP human tumour cell line panel, 48 h

Row | Structure (SMILES) | TGI [µM]
61 | Cc1ccc(N=Nc2c(O)c(C(=O)O)cc3ccccc23)c(S(=O)(=O)O)c1 | > 100
62 | O=c1cc(NNc2ccc(F)cc2)[nH]c(=O)[nH]1 | 36.8
63 | CC(CCc1ccccc1)NCC(O)n1c(/N=N/N(C)C)nc2c1c(=O)n(C)c(=O)n2C (stereo not drawn) | > 100
64 | O=C1CC(Cl)c2c1csc2Br (stereo not drawn) | 29.5

system: MDA-MB-231 breast; assay: DTP human tumour cell line panel, 48 h

Row | Structure (SMILES) | TGI [µM]
65 | Cc1ccc(N=Nc2c(O)c(C(=O)O)cc3ccccc23)c(S(=O)(=O)O)c1 | > 100
66 | O=c1cc(NNc2ccc(F)cc2)[nH]c(=O)[nH]1 | 33.4
67 | CC(CCc1ccccc1)NCC(O)n1c(/N=N/N(C)C)nc2c1c(=O)n(C)c(=O)n2C (stereo not drawn) | > 100

system: MOLT-4 leukemia; assay: DTP human tumour cell line panel, 48 h

Row | Structure (SMILES) | TGI [µM]
68 | Cc1ccc(N=Nc2c(O)c(C(=O)O)cc3ccccc23)c(S(=O)(=O)O)c1 | > 100
